How the values were obtained:
[1] = system: Ps. aeruginosa 1; assay: MIC, broth microdilution (NCCLS); assay type: cell-based; conditions: Gram negative; resistant clinical isolate from diabetic foot ulcer; MHB 24 h 35° C.
Procedure: (§1) Their antimicrobial activity was established according to the recommendations of NCCLS, (National Committee for Clinical Laboratory Standards 1999, “Performance standards for antimicrobial susceptibility testing. NCCLS approved standard M100-S9” Wayne, Pa.) by the use of a broth microdilution method. Minimum inhibitory concentrations (MICs) for the tested compound were conducted using 12 different pathogens clinically isolated from diabetic foot ulcers and are all resistant strains for at least 10 antibiotics used for diabetic foot ulcer treatment. S. aureus 1, 2 and 3 and S. pyogenes 1, 2 and 3 as […] bacteria and P. mirabilis 1, 2 and 3 and Ps. aeruginosa 1, 2 and 3 as […] bacteria. The test materials were dissolved in DMSO. The highest concentration used was 256 μg/ml. The inoculum was 10^5CFU/ml for bacteria and 10^4CFU/ml for the yeast. Bacteria were cultured in Mueller Hinton Broth (MHB) for 24 h at 35° C. and the yeast in Glucose Peptone Broth (GPB) for 48 h at 30° C. MIC value was corresponding to the lowest concentration that inhibited the bacterial growth.
(§2) For the following seven samples, MICs values were determined and the antimicrobial activity is inversely proportional to this value. Concentrations used in this screening were: 1, 2, 4, 8, 16, 32, 64, 128 and 256 (μg/ml). 1 μg/ml corresponds to a 10^−4% solution and an Ag(I) concentration of about 2·10^−6 mol/dm^3.

[2] = system: S. pyogenes 2; assay: MIC, broth microdilution (NCCLS); assay type: cell-based; conditions: Gram positive; resistant clinical isolate from diabetic foot ulcer; MHB 24 h 35° C.
Procedure: as §1, §2

[3] = system: P. mirabilis 3; assay: MIC, broth microdilution (NCCLS); assay type: cell-based; conditions: Gram negative; resistant clinical isolate from diabetic foot ulcer; MHB 24 h 35° C.
Procedure: as §1, §2

[4] = system: S. aureus 1; assay: MIC, broth microdilution (NCCLS); assay type: cell-based; conditions: Gram positive; resistant clinical isolate from diabetic foot ulcer; MHB 24 h 35° C.
Procedure: as §1, §2

[5] = system: S. pyogenes 1; assay: MIC, broth microdilution (NCCLS); assay type: cell-based; conditions: Gram positive; resistant clinical isolate from diabetic foot ulcer; MHB 24 h 35° C.
Procedure: as §1, §2

[6] = system: P. mirabilis 2; assay: MIC, broth microdilution (NCCLS); assay type: cell-based; conditions: Gram negative; resistant clinical isolate from diabetic foot ulcer; MHB 24 h 35° C.
Procedure: as §1, §2

[7] = system: P. mirabilis 1; assay: MIC, broth microdilution (NCCLS); assay type: cell-based; conditions: Gram negative; resistant clinical isolate from diabetic foot ulcer; MHB 24 h 35° C.
Procedure: as §1, §2

[8] = system: S. aureus 3; assay: MIC, broth microdilution (NCCLS); assay type: cell-based; conditions: Gram positive; resistant clinical isolate from diabetic foot ulcer; MHB 24 h 35° C.
Procedure: as §1, §2

[9] = system: S. pyogenes 3; assay: MIC, broth microdilution (NCCLS); assay type: cell-based; conditions: Gram positive; resistant clinical isolate from diabetic foot ulcer; MHB 24 h 35° C.
Procedure: as §1, §2

[10] = system: S. aureus 2; assay: MIC, broth microdilution (NCCLS); assay type: cell-based; conditions: Gram positive; resistant clinical isolate from diabetic foot ulcer; MHB 24 h 35° C.
Procedure: as §1, §2

[11] = Solubility in DMSO; assay type: physicochemical; conditions: sparingly soluble

SMILES | MIC Ps. Aeruginosa 1 [1] | MIC S. pyogenes 2 [2] | MIC P. mirabilis 3 [3] | MIC S. aureus 1 [4] | MIC S. pyogenes 1 [5] | MIC P. mirabilis 2 [6] | MIC P. mirabilis 1 [7] | MIC S. aureus 3 [8] | MIC S. pyogenes 3 [9] | MIC S. aureus 2 [10] | solubility in DMSO [11]
Nc1ncccc1C(=O)O.Nc1ncccc1C(=O)O.O=[N+]([O-])[O-].O=[N+]([O-])[O-].[Ag+].[Ag+] [Compound 6, [Ag2-μ-O,O′(2-aminonicotinium)2](NO3)2] | 8 µg/mL | 256 µg/mL | 32 µg/mL | 32 µg/mL | 128 µg/mL | 16 µg/mL | 64 µg/mL | 64 µg/mL | 256 µg/mL | 32 µg/mL | 
CCOC(=O)c1ccncc1.O=[N+]([O-])[O-].[Ag+] [Compound 3, [Ag(ethylisonicotinato)2]NO3] | 32 µg/mL | 16 µg/mL | 16 µg/mL | 8 µg/mL | 32 µg/mL | 2 µg/mL | 8 µg/mL | 16 µg/mL | 16 µg/mL | 4 µg/mL | 3000 to 5000 µg/mL
CCOC(=O)c1cccnc1.O=[N+]([O-])[O-].[Ag+] [Compound 2, [Ag(ethylnicotinate)2]NO3] | 64 µg/mL | 4 µg/mL | 256 µg/mL | 16 µg/mL | 2 µg/mL | 128 µg/mL | 128 µg/mL | 4 µg/mL | 2 µg/mL | 4 µg/mL | 3000 to 5000 µg/mL
COC(=O)c1ccncc1.O=[N+]([O-])[O-].[Ag+] [Compound 4, [Ag(methylisonicotinate)2]NO3] | 128 µg/mL | 128 µg/mL | 2 µg/mL | 16 µg/mL | 64 µg/mL | 1 µg/mL | 2 µg/mL | 8 µg/mL | 64 µg/mL | 32 µg/mL | 3000 to 5000 µg/mL

Source: US20100234339A1, “SILVER(I) COMPOUNDS AND THEIR USE IN PHARMACEUTICAL COMPOSITIONS FOR THE TREATMENT,PROPHYLAXIS AND PREVENTION OF INFECTIONS” (priority 2007, published 2010)
